Values joined by “and” are separate entries in the source; they are usually repeats but may differ in a detail not shown here. Equal values may be shown once.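 Cultured in 96-well plates, cells were exposed to test compound for 48 hours across five concentrations. GI50: concentration for 50% inhibition of growth.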 Active and inactive are the calls of the source. No stated cut-off is given here; in the data, active = GI50 up to about 1.1 µM and inactive = higher.
Tests used:
Assay in all cases: NCI-60 cell line screen, 48 h
CAKI-1 = tested on: CAKI-1
SK-OV-3 = tested on: SK-OV-3
UACC-62 = tested on: UACC-62
DMS-273 = tested on: DMS-273
SK-MEL-28 = tested on: SK-MEL-28
CCRF-CEM = tested on: CCRF-CEM
ACHN = tested on: ACHN
HOP-62 = tested on: HOP-62
HCC 2998 = tested on: HCC 2998
COLO 205 = tested on: COLO 205
Malme-3M = tested on: Malme-3M
UO-31 = tested on: UO-31
MOLT-4 = tested on: MOLT-4
DMS-114 = tested on: DMS-114
HCT-116 = tested on: HCT-116
A498 = tested on: A498
M19-MEL = tested on: M19-MEL
NCI-H226 = tested on: NCI-H226
SF-268 = tested on: SF-268
XF498 = tested on: XF498
SNB-75 = tested on: SNB-75
HOP-92 = tested on: HOP-92
K562 = tested on: K562
OVCAR-4 = tested on: OVCAR-4
SK-MEL-2 = tested on: SK-MEL-2
SF-539 = tested on: SF-539
786-0 = tested on: 786-0
NCI-H522 = tested on: NCI-H522
HL-60 = tested on: HL-60
RPMI-8226 = tested on: RPMI-8226
SNB-78 = tested on: SNB-78
RXF 631 = tested on: RXF 631
DLD-1 = tested on: DLD-1
LXFL 529 = tested on: LXFL 529
SR = tested on: SR
M14 = tested on: M14
IGROV-1 = tested on: IGROV-1
NCI-H23 = tested on: NCI-H23
SN12C = tested on: SN12C
T47D = tested on: T47D
MDA-MB-231 = tested on: MDA-MB-231
Hs-578T = tested on: Hs-578T
UACC-257 = tested on: UACC-257
DU-145 = tested on: DU-145
KM-20L2 = tested on: KM-20L2
HOP-18 = tested on: HOP-18
PC-3 = tested on: PC-3
MDA-MB-435 = tested on: MDA-MB-435
MDA-N = tested on: MDA-N
MCF7 = tested on: MCF7
NCI/ADR-RES = tested on: NCI/ADR-RES
RXF 393 = tested on: RXF 393
BT-549 = tested on: BT-549
OVCAR-5 = tested on: OVCAR-5
SW-620 = tested on: SW-620
SNB-19 = tested on: SNB-19
HT-29 = tested on: HT-29
SF-295 = tested on: SF-295
TK-10 = tested on: TK-10
EKVX = tested on: EKVX
OVCAR-3 = tested on: OVCAR-3
SK-MEL-5 = tested on: SK-MEL-5
KM12 = tested on: KM12
LOX IMVI = tested on: LOX IMVI
HCT-15 = tested on: HCT-15
U-251 = tested on: U-251
OVCAR-8 = tested on: OVCAR-8
NCI-H460 = tested on: NCI-H460
A549 = tested on: A549

For `Cc1ccc(NC(=O)c2c(C)nc(=O)n3c2N(/N=C/c2ccc(Cl)cc2)CC3)cc1`, the GI50 (CAKI-1) was 18.2 µM (inactive), the GI50 (SK-OV-3) was 21.3 µM (inactive) and the GI50 (UACC-62) was 13.4 µM (inactive). For the same compound, the GI50 (DMS-273) was 19.2 µM (inactive), the GI50 (SK-MEL-28) was 16.3 µM (inactive) and the GI50 (CCRF-CEM) was 26.9 µM (inactive). For the same compound, the GI50 (ACHN) was 16.3 µM (inactive), the GI50 (HOP-62) was 18.7 µM (inactive) and the GI50 (HCC 2998) was 17.9 µM (inactive). For the same compound, the GI50 (COLO 205) was 21.7 µM (inactive), the GI50 (Malme-3M) was 21.4 µM (inactive) and the GI50 (UO-31) was 11.7 µM (inactive). The GI50 (MOLT-4) was 23.8 µM (inactive), the GI50 (DMS-114) was 16.5 µM (inactive) and the GI50 (HCT-116) was 13.2 µM (inactive). The GI50 (A498) was 15.9 µM (inactive), the GI50 (M19-MEL) was 19.9 µM (inactive) and the GI50 (NCI-H226) was 16 µM (inactive). The GI50 (SF-268) was 12.7 µM (inactive), the GI50 (XF498) was 15.6 µM (inactive) and the GI50 (SNB-75) was 18.8 µM (inactive). For the same compound, the GI50 (HOP-92) was 20 µM (inactive), the GI50 (K562) was 26.7 µM (inactive) and the GI50 (OVCAR-4) was 14.4 µM (inactive). For the same compound, the GI50 (SK-MEL-2) was 18.7 µM (inactive), the GI50 (SF-539) was 11.9 µM (inactive) and the GI50 (786-0) was 17.8 µM (inactive). For the same compound, the GI50 (NCI-H522) was 10.4 µM (inactive), the GI50 (HL-60) was 23.1 µM (inactive) and the GI50 (RPMI-8226) was > 10 µM (inactive). For the same compound, the GI50 (SNB-78) was 19.8 µM (inactive), the GI50 (RXF 631) was 14.7 µM (inactive) and the GI50 (DLD-1) was 16.6 µM (inactive). The GI50 (LXFL 529) was 16.8 µM (inactive), the GI50 (SR) was 24.5 µM (inactive) and the GI50 (M14) was 17.1 µM (inactive). For the same compound, the GI50 (IGROV-1) was 18.2 µM (inactive), the GI50 (NCI-H23) was 14.2 µM (inactive) and the GI50 (SN12C) was 14.7 µM (inactive).
`CN(C)CCNC(=O)c1cccc2cc([N+](=O)[O-])ccc12` was tested, and the GI50 (CAKI-1) was 0.519 µM (active), the GI50 (DMS-273) was 0.123 µM (active) and the GI50 (T47D) was 2.79 µM (inactive). For the same compound, the GI50 (MDA-MB-231) was 1.34 µM (inactive), the GI50 (Hs-578T) was 1.46 µM (inactive) and the GI50 (UACC-257) was 0.243 µM (active). For the same compound, the GI50 (DU-145) was 2.86 µM (inactive), the GI50 (DMS-114) was 0.217 µM (active) and the GI50 (M19-MEL) was 0.279 µM (active). The GI50 (KM-20L2) was 0.111 µM (active), the GI50 (HOP-18) was 0.697 µM (active) and the GI50 (XF498) was 0.252 µM (active). The GI50 (HOP-92) was 0.249 µM (active), the GI50 (PC-3) was 0.76 µM (active) and the GI50 (MDA-MB-435) was 2.23 µM (inactive). For the same compound, the GI50 (MDA-N) was 1.98 µM (inactive), the GI50 (MCF7) was 0.608 µM (active) and the GI50 (NCI-H522) was 0.685 µM (active). For the same compound, the GI50 (RPMI-8226) was 183 nM (active) and 262 nM (active), the GI50 (SNB-78) was 0.22 µM (active) and the GI50 (NCI/ADR-RES) was 1.39 µM (inactive). The GI50 (DLD-1) was 0.217 µM (active), the GI50 (LXFL 529) was 0.271 µM (active) and the GI50 (RXF 393) was 0.0649 µM (active). The GI50 (BT-549) was 3.56 µM (inactive).
In the case of `COc1ccc(/N=C\c2ccc(N(CCC#N)CCC#N)cc2)cc1`, the GI50 (CAKI-1) is reported as 69.2 µM (inactive), the GI50 (SK-OV-3) is reported as > 100 µM (inactive) and the GI50 (OVCAR-5) is reported as 55.5 µM (inactive). For the same compound, the GI50 (UACC-62) was 16.6 µM (inactive), the GI50 (DMS-273) was 31.4 µM (inactive) and the GI50 (SK-MEL-28) was > 81.1 µM (inactive). For the same compound, the GI50 (SW-620) was 61.1 µM (inactive), the GI50 (CCRF-CEM) was 48.1 µM (inactive) and the GI50 (T47D) was > 100 µM (inactive). The GI50 (ACHN) was 26.7 µM (inactive), the GI50 (MDA-MB-231) was > 100 µM (inactive) and the GI50 (HOP-62) was > 56.2 µM (inactive). For the same compound, the GI50 (Hs-578T) was > 100 µM (inactive), the GI50 (SNB-19) was 90.2 µM (inactive) and the GI50 (HCC 2998) was 38.8 µM (inactive). The GI50 (COLO 205) was 44.2 µM (inactive), the GI50 (Malme-3M) was > 84.9 µM (inactive) and the GI50 (UO-31) was 44.5 µM (inactive). The GI50 (HT-29) was > 67.6 µM (inactive), the GI50 (UACC-257) was > 100 µM (inactive) and the GI50 (SF-295) was 54.1 µM (inactive). The GI50 (MOLT-4) was 66.5 µM (inactive), the GI50 (TK-10) was 64.1 µM (inactive) and the GI50 (DU-145) was > 100 µM (inactive). For the same compound, the GI50 (DMS-114) was 27.5 µM (inactive), the GI50 (HCT-116) was 63.8 µM (inactive) and the GI50 (A498) was > 100 µM (inactive). The GI50 (M19-MEL) was 34.1 µM (inactive), the GI50 (NCI-H226) was > 100 µM (inactive) and the GI50 (KM-20L2) was 9.68 µM (inactive). The GI50 (SF-268) was 53.2 µM (inactive), the GI50 (HOP-18) was > 100 µM (inactive) and the GI50 (XF498) was > 100 µM (inactive). The GI50 (EKVX) was > 100 µM (inactive), the GI50 (SNB-75) was > 100 µM (inactive) and the GI50 (HOP-92) was 99.3 µM (inactive). The GI50 (K562) was 7.62 µM (inactive), the GI50 (PC-3) was 47 µM (inactive) and the GI50 (OVCAR-3) was 78.3 µM (inactive). The GI50 (OVCAR-4) was > 86.1 µM (inactive), the GI50 (SK-MEL-2) was > 67.1 µM (inactive) and the GI50 (SK-MEL-5) was 40.4 µM (inactive). For the same compound, the GI50 (MDA-MB-435) was 32.8 µM (inactive), the GI50 (SF-539) was 27.9 µM (inactive) and the GI50 (MDA-N) was 63.8 µM (inactive). For the same compound, the GI50 (786-0) was 52.2 µM (inactive), the GI50 (KM12) was 17.1 µM (inactive) and the GI50 (LOX IMVI) was > 28.9 µM (inactive). The GI50 (HCT-15) was 17.4 µM, the GI50 (MCF7) was > 100 µM (inactive) and the GI50 (NCI-H522) was > 95.1 µM (inactive). The GI50 (HL-60) was 22.3 µM (inactive), the GI50 (RPMI-8226) was 59 µM (inactive) and the GI50 (SNB-78) was > 100 µM (inactive). The GI50 (U-251) was > 83.2 µM (inactive), the GI50 (NCI/ADR-RES) was > 100 µM (inactive) and the GI50 (DLD-1) was 24.9 µM (inactive). The GI50 (LXFL 529) was 7.11 µM (inactive), the GI50 (OVCAR-8) was 74.6 µM (inactive) and the GI50 (NCI-H460) was 43.1 µM (inactive). The GI50 (SR) was 90.8 µM (inactive), the GI50 (RXF 393) was > 78.5 µM (inactive) and the GI50 (M14) was 28.1 µM (inactive). For the same compound, the GI50 (IGROV-1) was 82 µM (inactive), the GI50 (A549) was 47.9 µM (inactive) and the GI50 (NCI-H23) was > 100 µM (inactive). For the same compound, the GI50 (SN12C) was > 89.3 µM (inactive) and the GI50 (BT-549) was > 38.9 µM (inactive).
